Entries after “also recorded” stand apart in the source; their conditions may differ.
Columns and labels:
p53 = assay: Western blot of p53 in cytoplasmic and nuclear fractions of HCT-116 cells; assay type: cell-based, human; details: VTD 10 and 30 μM
From the text: We next performed a clonogenic survival assay (S4E) to determine colony formation in cancer cells in the presence and absence of VTD. […] At the same time, we measured the mot-2, p53, and UBXN2A protein levels in all these cell lines. […] To verify whether VTD-induced cell death is mediated through the UBXN2A-mot-2-p53 axis, we looked at the expression of p53 in the cytoplasm and nucleus of HCT-116 cells following VTD treatment. […] Due to a high cell death in higher doses of VTD, we could not use WB analysis for reliable p53 and UBXN2A detection and quantification. Finally, we checked the effect of VTD on non-cancerous cell lines. […]
Nuclear and cytoplasmic fractions were prepared from the cells using NE-PER Nuclear and Cytoplasmic Extraction Reagents (Pierce, IL, USA) according to the manufacturer's instructions. Protein concentrations were determined by BCA assay followed by SDSPAGE and WB analysis with the appropriate antibodies (Supplementary Table S3).
FIG. 17: Induction of apoptosis and in vitro cytotoxicity by VTD in a human cancer cell line with different statuses of p53 and mot-2. […] After incubation, dead cells were washed off, and the remaining attached cells were calculated by counting in five random fields using the Axiovert 200 M inverted microscope and AxioVision software (cell detachment assay). The % of cells attached was calculated as % of control cells. […]

[1] = system: human umbilical vein endothelial cells (HUVECs); assay: Effect on non-cancerous cells; assay type: cell-based
From the text: We next performed a clonogenic survival assay (S4E) to determine colony formation in cancer cells in the presence and absence of VTD. […] At the same time, we measured the mot-2, p53, and UBXN2A protein levels in all these cell lines. […] To verify whether VTD-induced cell death is mediated through the UBXN2A-mot-2-p53 axis, we looked at the expression of p53 in the cytoplasm and nucleus of HCT-116 cells following VTD treatment. […] Due to a high cell death in higher doses of VTD, we could not use WB analysis for reliable p53 and UBXN2A detection and quantification. Finally, we checked the effect of VTD on non-cancerous cell lines. We incubated human umbilical vein endothelial cells (HUVECs), which mimic non-cancerous endothelial cells next to tumor cells, with VTD (S4G). […] Due to the different levels of the stress condition, we observed more sensitivity to VTD in LoVo and U2OS cells versus HCT-116 cells. In addition, lack of similar response in normal cells due to the absence of stresses and cytoplasmic mot-2 further explains VTD is therefore a drug that selectively targets cancer cell.

LoVo = assay: Flow cytometry of CD44+ cancer stem cells; assay type: cell-based, human; details: intermediate-dose of VTD
From the text: (§1) Based on the significant effect of long-term exposure in LoVo and U2OS, we hypothesized that VTD could be a potential complementary strategy alongside 5-FU, an effective drug with a high rate of resistant events in colon tumors. To answer this question, we first determined the minimum concentration of 5-FU that has no effect or a very mild effect on cell viability after 10 days' exposure in three cell lines HCT-116, LoVo, and U2OS (data not shown). We performed the 10 days' treatment using a combination of a low dose of VTD (50 μM or 100 μM) plus a suboptimal dose of 5-FU (1 μM or 5 μM).
(§2) FIG. 20: Sensitization of colon cancer cells to a long-term suboptimal dose of 5-fluorouracil exposure when combined with VTD. (A-D) (A) HCT-116, (B) LoVo, (C) SW-480, and (D) U2OS were treated with VTD (10-300 μM) for 10 days. […] (E-G) (E) HCT-116, (F) LoVo, and (G) U-2OS were treated with suboptimal doses of 5-FU and VTD (50 and 100 μM) for 10 days. […] (J) Tumor tissue lysates from 48 patients with colon cancer along the matched adjacent normal colon tissue lysates were probed with anti-UBXN2A and anti-Actin antibodies, followed by quantitation and normalization of signals. […]

U2OS = assay: Flow cytometry of CD44+ cancer stem cells; assay type: cell-based, human; details: intermediate-dose of VTD
From the text: as §1, §2

Question: For `COc1ccc(C(=O)O[C@H]2CC[C@@]3(C)[C@@H]4CC[C@H]5[C@]6(O)C[C@H](O)[C@@]7(O)[C@@H](CN8C[C@@H](C)CC[C@H]8[C@@]7(C)O)[C@]6(O)C[C@@]53O[C@]24O)cc1OC` [VTD, Veratridine], which “p53 levels in cytoplasm and nucleus (WB)” value (p53) is on record?
Answer: The value was “increases WT-p53 levels both in the cytoplasm and nucleus; also recorded: increases p53 in both cytoplasm and nucleus compartments in a dose-dependent manner”.

Question: And the “response of non-cancerous HUVEC cells” value ([1]; first 24 hours)?
Answer: The value was “did not respond”.

Question: And the “response of non-cancerous HUVEC cells” value ([1]; highest dose of VTD, 48 hours)?
Answer: Its value is “moderate response”.

Question: What about the “abundance of CD44+ cancer stem cells” value (LoVo) of the same compound?
Answer: The value was “reduces the abundance of the CD44+ cancer stem cells”.

Question: What about the “abundance of CD44+ cancer stem cells” value (U2OS) of the same compound?
Answer: The value was “reduces the abundance of the CD44+ cancer stem cells”.

— patent US12233129B2, “Methods and compositions for the treatment of cancer” (priority 2019, dated 2025)
